What was measured:
KM12 luc = KM12 luc cell proliferation assay (Table 8); format: cell-based; conditions: KM12 luc cells; read-out: KM12 luc IC 50
parental BaF3 cells = assay: Proliferation of parental (untransformed) Ba/F3 cells maintained with IL3; format: cell-based, murine; conditions: Mus musculus, BaF3, parental Ba/F3 cells; read-out: Ba/F3 IC 50
Method: (§1) Test compounds were dissolved in DMSO (10 mM) and transferred into 1.4 mL flat bottom or V-shaped Matrix tubes carrying a unique 2D matrix chip by individual compound hubs. The numbers of these chips were distinctively linked to the individual compound identification numbers. The stock solutions were stored at −20° C. if not used immediately. For the test procedure the vials were defrosted and identified by a scanner whereby a working sheet is generated that guides the subsequent working steps.
(§2) Compound dilutions were made in 384 well plates. This format enabled the assay of maximally 28 individual test compounds at 12 concentrations (single points) including 2 reference compounds. The dilution protocol included the production of pre-dilution plates, master plates and assay plates: • Compound plates: 30 μL of individual compound (10 mM) DMSO solution including standard compound were transferred into columns 1 and 13 of a 384 well plate. 20 μL of DMSO were added to the rest of the wells and the compounds were serially diluted (1:3) by transferring 10 μL from a well in column 1 or 13 to the next well in column 2 or 14 respectively and successively with the help of a Minitrack robot. • Assay plates: Identical assay plates were then prepared by adding […] each of compound dilutions of the compound plates into 384-well “assay plates”. In the following the compounds were mixed with 50 μL of assays components (cells or enzyme) and tested for their inhibitory activity.
(§3) The cell line used is the luciferase expressing Ba/F3 murine hematopoietic progenitor cell line transformed with human Tel-TrkA, Tel-TrkB or Tel-TrkC cDNAs (Ba/F3 EN A/B/C). These cells maintained in RPMI/10% fetal bovine serum (RPMI/FCS) supplemented with penicillin 50 mg/mL, streptomycin 50 mg/mL and L-glutamine […]. Untransformed Ba/F3 cells were similarly maintained with the addition 5 ng/ml of murine recombinant IL3. 50 μl of a Ba/F3 or Ba/F3 EN A/B/C cell suspension were plated in Greiner 384 well microplates (white)) at a density of 2000 cells per well. 50 nl of serially diluted test compound (10-0.0001 mM in DMSO solution) is added to each well. The cells were incubated for 48 hours at 37° C., 5% CO2. 25 μl of Bright Glo® (Promega) luciferase substrate is added to each well. The emited luminiscence is quantified using the ACQUEST™ luminescence system (Molecular Devices). IC50 values were calculated by linear regression analysis of the percentage inhibition of each compound at 12 concentrations.

Tel-TrkA = target: T1, Tel-TrkA (Homo sapiens, UniProt P04629); assay: Inhibition of proliferation of Ba/F3 cells expressing Tel-TrkA (BaF3/Tel-TrkA, luciferase/Bright Glo readout); format: cell-based; conditions: read-out: Ba/F3 Tel-TrkA IC 50
T1 construct: dimerization domain of Tel (ETV6) transcription factor (fusion partner, human ETV6 P41212); expressed in transfected cells; host or cells: luciferase expressing Ba/F3 murine hematopoietic progenitor cells; the other entry of the earlier key: ETV6 (P41212, Transcription factor ETV6)
T1 sequence (P04629 510-796 limits assumed): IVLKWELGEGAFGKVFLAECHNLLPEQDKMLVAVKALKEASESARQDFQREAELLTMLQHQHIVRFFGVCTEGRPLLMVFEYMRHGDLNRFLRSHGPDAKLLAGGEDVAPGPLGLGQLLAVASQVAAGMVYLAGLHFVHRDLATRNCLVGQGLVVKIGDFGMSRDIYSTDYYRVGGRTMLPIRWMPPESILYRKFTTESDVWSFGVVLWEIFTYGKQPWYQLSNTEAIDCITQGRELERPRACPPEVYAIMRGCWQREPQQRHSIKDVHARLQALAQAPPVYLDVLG
Method: as §1, §2
(§4) Compounds of Formula (I) were tested for their antiproliferative effect on Ba/F3 cells expressing either Tel-TrkA, Tel-TrkB or Tel-TrkC and an additional panel of 34 selected diverse kinases activated by fusion to the dimerizing partners Bcr or Tel (Abl, A1K, BMX, EphA3, EphB2, FGFR2, FGFR3, FGFR4, FGR, FLT1, FLT3, FLT4, FMS, IGF1R, InsR, JAK1, JAK2, JAK3, KDR, Kit, Lck, Lyn, MER, MET, PDGFRb, RET, RON, Ros-1, Src, Aurora, TIE2, TYK2, Tie1, ZAP70). The antiproliferative effect of these compounds on the different cell lines and on the non transformed cells were tested at 12 different concentrations of 3-fold serially diluted compounds in 384 well plates as described above (in media lacking IL3). The IC50 values of the compounds the different cell lines were determined from dose response curves.
as §3, with “50 nl of serially diluted test compound (10-0.0001 mM in DMSO solution) is added to each well.” left out

Tel-TrkB = target: T2, Tel-TrkB (Homo sapiens, UniProt Q16620); assay: Inhibition of proliferation of Ba/F3 cells expressing Tel-TrkB (BaF3/Tel-TrkB); format: cell-based; conditions: Ba/F3 Tel-TrkB cells; read-out: Ba/F3 Tel-TrkB IC 50
T2 construct: dimerization domain of Tel (ETV6) transcription factor (fusion partner, human ETV6 P41212); expressed in transfected cells; host or cells: luciferase expressing Ba/F3 murine hematopoietic progenitor cells; the other entry of the earlier key: ETV6 (P41212, Transcription factor ETV6)
T2 sequence (Q16620 538-822 limits assumed): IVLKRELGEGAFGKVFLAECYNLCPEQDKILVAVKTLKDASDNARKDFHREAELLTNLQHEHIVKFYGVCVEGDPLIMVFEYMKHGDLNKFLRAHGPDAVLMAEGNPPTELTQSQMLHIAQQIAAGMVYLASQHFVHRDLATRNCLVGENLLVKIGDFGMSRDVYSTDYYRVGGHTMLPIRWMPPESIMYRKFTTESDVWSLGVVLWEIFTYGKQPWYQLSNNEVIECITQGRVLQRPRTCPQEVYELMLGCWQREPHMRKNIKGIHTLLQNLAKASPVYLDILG
Method: as §1, §2, §4
as §3, with “50 nl of serially diluted test compound (10-0.0001 mM in DMSO solution) is added to each well.” left out

[1] = target: T3, full length rTrkA and mNGF (Rattus norvegicus, UniProt P35739); assay: Inhibition of proliferation of Ba/F3 cells co-expressing full length rTrkA and mNGF (BaF3/TrkA-NFG); format: cell-based; conditions: BaF3 TRKA-NGF cells, CTG readout
T3 construct: co-expressing full length rTrkA and mNGF; expressed in transfected cells; host or cells: Ba/F3 cells
T3 sequence (P35739 33-799): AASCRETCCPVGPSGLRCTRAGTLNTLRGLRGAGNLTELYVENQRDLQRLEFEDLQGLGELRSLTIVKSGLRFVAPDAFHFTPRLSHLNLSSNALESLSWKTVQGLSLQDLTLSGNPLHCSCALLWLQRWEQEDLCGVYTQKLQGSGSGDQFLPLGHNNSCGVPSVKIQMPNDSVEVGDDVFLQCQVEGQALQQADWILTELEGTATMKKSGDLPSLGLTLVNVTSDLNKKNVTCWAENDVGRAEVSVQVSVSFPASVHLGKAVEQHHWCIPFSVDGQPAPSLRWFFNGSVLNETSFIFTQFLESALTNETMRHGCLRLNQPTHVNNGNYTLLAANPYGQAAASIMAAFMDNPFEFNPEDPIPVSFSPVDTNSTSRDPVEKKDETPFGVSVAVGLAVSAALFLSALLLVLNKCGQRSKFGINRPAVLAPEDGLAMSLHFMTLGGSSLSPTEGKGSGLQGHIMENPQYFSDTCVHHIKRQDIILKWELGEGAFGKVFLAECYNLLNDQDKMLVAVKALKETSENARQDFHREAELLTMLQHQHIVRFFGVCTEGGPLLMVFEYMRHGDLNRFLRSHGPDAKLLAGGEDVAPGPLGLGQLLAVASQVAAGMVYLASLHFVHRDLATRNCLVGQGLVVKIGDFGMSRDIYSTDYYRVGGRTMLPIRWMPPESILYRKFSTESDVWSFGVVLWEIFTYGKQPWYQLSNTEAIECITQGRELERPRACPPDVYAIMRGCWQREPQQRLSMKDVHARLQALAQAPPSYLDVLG
T3 sequence (P01139 122-241 partner): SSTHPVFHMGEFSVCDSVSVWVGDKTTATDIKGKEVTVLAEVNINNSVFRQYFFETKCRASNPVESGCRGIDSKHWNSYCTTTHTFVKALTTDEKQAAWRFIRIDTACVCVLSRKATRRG

Row | SMILES | IC50 (Tel-TrkA) [nM] | IC50 (Tel-TrkB) [nM] | BaF3 TRKA-NGF CTG IC 50 [1] [nM] | IC50 (KM12 luc) [nM] | IC50 (parental BaF3 cells) [nM]
1 | N#Cc1ccc(-c2cnc3ccc(N4CCOCC4c4cccc(F)c4)nn23)cc1 (stereo not shown) [Table 2-Compound 1] | – | – | – | 7 | > 9690
2 | Fc1cccc(C2COCCN2c2ccc3ncc(-c4ccccn4)n3n2)c1 (stereo not shown) [Table 2-Compound 4] | 8.6 | 5.8 | 17 | 8.3 | > 10000
3 | N#Cc1cc(-c2cnc3ccc(N4CCOCC4c4cccc(F)c4)nn23)ccc1F (stereo not shown) [Table 2-Compound 6] | 58 | 44 | 78 | 56 | > 10000
4 | N#Cc1cc(-c2cnc3ccc(N4CCOCC4c4cccc(F)c4)nn23)ccc1N1CCC(O)CC1 (stereo not shown) [Table 2-Compound 7] | 83 | 230 | 550 | 140 | > 10000
5 | CN(C)C(=O)CN1CCN(c2ccc(-c3cnc4ccc(N5CCOCC5c5cccc(F)c5)nn34)cc2C#N)CC1 (stereo not shown) [Table 2-Compound 8] | 1.6 | 2.2 | 29 | 5.2 | > 10000
6 | OCCN1CCN(c2nccc(-c3cccc(-c4cnc5ccc(N6CCC[C@@H]6c6cccc(F)c6)nn45)n3)n2)CC1 [Table 7-Compound 82] | 8.9 | 10 | 5.12 | – | 397
7 | CC(C)NC(=O)CN1CCN(c2cccc(-c3cnc4ccc(N5CCCC5c5cccc(F)c5)nn34)n2)CC1 (stereo not shown) [Table 7-Compound 96] | 1 | 2 | 3 | – | 5990
8 | OCC1CCCN(c2cccc(-c3cnc4ccc(N5CCCC5c5cccc(F)c5)nn34)n2)C1 (stereo not shown) [Table 7-Compound 98] | 6 | 9 | 13 | – | > 11000
9 | OCCN1CCN(c2cccc(-c3cnc4ccc(N5CCCC5c5cccc(F)c5)nn34)n2)CC1 (stereo not shown) [Table 7-Compound 100] | 2 | 2 | 3 | – | 4380
10 | CN(C)CCNC(=O)C1CCN(c2cccc(-c3cnc4ccc(N5CCCC5c5cccc(F)c5)nn34)n2)CC1 (stereo not shown) [Table 7-Compound 115] | 14 | 14 | 16 | – | 4840
11 | OC1CCN(c2cncc(-c3cnc4ccc(N5CCCC5c5cccc(F)c5)nn34)n2)CC1 (stereo not shown) [Table 7-Compound 121] | 3.34 | 3.02 | 4.88 | – | > 10000
12 | O=C(CO)NC1CN(c2cccc(-c3cnc4ccc(N5CCC[C@@H]5c5cccc(F)c5)nn34)n2)C1 [Table 7-Compound 132] | 2 | 2 | 4 | – | > 11000
13 | Fc1cccc(C2CCCN2c2ccc3ncc(-c4cccc(-c5ccnc(N6CC7(COC7)C6)n5)n4)n3n2)c1 (stereo not shown) [Table 7-Compound 136] | 13 | 24 | 39 | – | 4320

Now from value to compound, other results behind:

Row | IC50 (Tel-TrkA) [nM] | IC50 (Tel-TrkB) [nM] | BaF3 TRKA-NGF CTG IC 50 [1] [nM] | SMILES | IC50 (KM12 luc) [nM] | IC50 (parental BaF3 cells) [nM]
14 | 34 | 53 | 31 | Cc1c[nH]c(C2CCN(c3cccc(-c4cnc5ccc(N6CCOCC6c6cccc(F)c6)nn45)n3)CC2)n1 (stereo not shown) [Table 7-Compound 143] | – | > 11000
15 | 346 | 244 | 698 | Fc1cccc(C2CCCN2c2ccc3ncc(-c4cc5ccccc5nc4F)n3n2)c1 (stereo not shown) [Table 7-Compound 153] | – | > 11000
16 | 224 | 129 | 238 | OCCNc1ncc(-c2cnc3ccc(N4CCCC4c4cccc(F)c4)nn23)cn1 (stereo not shown) [Table 7-Compound 171] | – | > 11000
17 | 1120 | 971 | 886 | CC(C)(C)OC(=O)N1CCC(Oc2ncc(-c3cnc4ccc(N5CCCC5c5cccc(F)c5)nn34)cn2)CC1 (stereo not shown) [Table 7-Compound 176] | – | 2750
18 | 7 | 8 | 14 | O=C1CCN(c2cccc(-c3cnc4ccc(N5CCC[C@@H]5c5cccc(F)c5)nn34)n2)CC1 [Table 7-Compound 181] | – | > 11000
19 | 64 | 70 | 119 | CNC(=O)OC1CCN(c2cccc(-c3cnc4ccc(N5CCC[C@@H]5c5cccc(F)c5)nn34)n2)CC1 [Table 7-Compound 185] | – | > 11000
20 | 14 | 12 | 16 | O=C(COCc1ccccc1)N1CCN(c2cccc(-c3cnc4ccc(N5CCC[C@@H]5c5cccc(F)c5)nn34)n2)CC1 [Table 7-Compound 191] | – | > 9560
21 | 27 | 30 | 60 | Fc1cccc([C@H]2CCCN2c2ccc3ncc(-c4cccc(N5CC[C@@H](NCC(F)(F)F)C5)n4)n3n2)c1 [Table 7-Compound 217] | – | > 11000
22 | 6 | 9 | 29 | [2H]C([2H])([2H])N(C1CCN(c2cccc(-c3cnc4ccc(N5CCC[C@@H]5c5cccc(F)c5)nn34)n2)CC1)C([2H])([2H])[2H] [Table 7-Compound 230] | – | 2690
23 | 23 | 28 | 54 | CCN(CC)S(=O)(=O)N1CCN(c2cccc(-c3cnc4ccc(N5CCC[C@@H]5c5cccc(F)c5)nn34)n2)CC1 [Table 7-Compound 231] | – | > 11000
24 | 17 | 25 | 35 | C=CC1(O)CCN(c2cccc(-c3cnc4ccc(N5CCC[C@@H]5c5cccc(F)c5)nn34)n2)CC1 [Table 7-Compound 238] | – | > 11000
25 | 144 | 147 | 130 | CNC1CCN(c2cc(-c3cccc(-c4cnc5ccc(N6CCCC6c6cccc(F)c6)nn45)n3)ccn2)CC1 (stereo not shown) [Table 7-Compound 249] | – | 6380
26 | 130 | 289 | 101 | Fc1ccc(N2CCN(c3cccc(-c4cnc5ccc(N6CCC[C@@H]6c6cccc(F)c6)nn45)n3)CC2)cc1 [Table 7-Compound 257] | – | > 11000

Reference: patent US8507488B2, “Fused nitrogen containing heterocycles and compositions thereof as kinase inhibitors” (IRM LLC, priority 2008, dated 2013)
